Assays:
Imidazoline I2, Central = assay: Eurofins Hit Profiling Screen; type: binding; settings: 10 μmol/L
Opiate μ (OP3, MOP) = Opiate μ (OP3, MOP) (Homo sapiens, UniProt P35372); assay: Eurofins Hit Profiling Screen; type: binding; settings: 10 μmol/L
[1] = molecular target: Nicotinic Acetylcholine α1, Bungarotoxin (Homo sapiens, UniProt P02708+P07510+Q07001); assay: Eurofins Hit Profiling Screen; type: binding; settings: 10 μmol/L
[2] = Pharmacokinetic study in mice; type: in vivo, C57/BL6 mice; settings: mouse
Protocol: Studies were performed by Pharmalegacy (Shanghai, China), GVK (Hyderabad, India) and Sundia, (Shanghai, China), with local ethics approval. Wistar rats were administered PXS‐5153A orally at 10 mg/kg or intravenously at 5 mg/kg, while C57/BL6 mice received PXS‐5153A orally or intravenously at 5 mg/kg. Plasma was analysed for PXS‐5153A by high‐performance liquid chromatography‐mass spectrometry/mass spectrometry (LCMS/MS).

Adrenergic β1 = Adrenergic β1 (Homo sapiens, UniProt P08588); assay: Eurofins Hit Profiling Screen; type: binding; settings: 10 μmol/L
Adrenergic β1, sequence (P08588 whole entry): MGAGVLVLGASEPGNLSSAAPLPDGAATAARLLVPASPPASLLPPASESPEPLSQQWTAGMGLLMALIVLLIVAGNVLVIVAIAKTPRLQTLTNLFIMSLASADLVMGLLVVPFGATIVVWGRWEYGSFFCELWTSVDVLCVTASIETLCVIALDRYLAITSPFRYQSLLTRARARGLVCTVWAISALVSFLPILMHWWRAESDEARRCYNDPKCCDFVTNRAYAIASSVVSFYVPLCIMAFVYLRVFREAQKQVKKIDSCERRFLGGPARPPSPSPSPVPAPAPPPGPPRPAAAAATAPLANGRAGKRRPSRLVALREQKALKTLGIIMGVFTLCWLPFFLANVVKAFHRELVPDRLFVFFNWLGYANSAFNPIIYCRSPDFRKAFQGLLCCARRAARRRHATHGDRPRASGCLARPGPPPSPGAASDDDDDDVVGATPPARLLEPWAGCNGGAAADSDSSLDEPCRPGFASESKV

LOXL2 = molecular target: T1, LOXL2 (Homo sapiens, UniProt Q9Y4K0); assay: Amplex-Red fluorometric enzymatic activity assay, recombinant human LOXL2; type: biochemical; set-up: purchased R&D Systems
T1 sequence (Q9Y4K0 26-774): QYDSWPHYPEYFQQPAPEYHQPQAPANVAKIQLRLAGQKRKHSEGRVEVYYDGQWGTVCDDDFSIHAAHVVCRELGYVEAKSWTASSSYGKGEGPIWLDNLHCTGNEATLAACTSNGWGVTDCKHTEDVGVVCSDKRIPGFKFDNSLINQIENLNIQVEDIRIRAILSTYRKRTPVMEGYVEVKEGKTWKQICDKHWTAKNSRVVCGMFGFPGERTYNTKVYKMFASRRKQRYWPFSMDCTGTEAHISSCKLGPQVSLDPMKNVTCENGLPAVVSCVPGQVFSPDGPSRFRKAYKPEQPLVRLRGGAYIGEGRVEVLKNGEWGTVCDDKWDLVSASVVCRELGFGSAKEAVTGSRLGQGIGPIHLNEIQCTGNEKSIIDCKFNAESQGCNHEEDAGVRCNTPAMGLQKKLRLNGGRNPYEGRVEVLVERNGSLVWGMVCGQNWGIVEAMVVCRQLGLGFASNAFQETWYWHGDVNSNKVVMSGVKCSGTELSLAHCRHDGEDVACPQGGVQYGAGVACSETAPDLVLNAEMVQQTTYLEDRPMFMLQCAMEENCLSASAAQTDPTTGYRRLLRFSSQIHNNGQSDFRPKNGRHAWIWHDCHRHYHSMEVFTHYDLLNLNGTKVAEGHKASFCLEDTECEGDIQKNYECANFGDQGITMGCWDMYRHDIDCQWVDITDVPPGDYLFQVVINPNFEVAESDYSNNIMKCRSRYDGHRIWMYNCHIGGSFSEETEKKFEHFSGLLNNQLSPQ
Protocol: The measurement of the enzymatic activity of all lysyl oxidase family members was based on the detection of hydrogen peroxide with an Amplex‐Red oxidation assay, as described in Zhou et al26 Recombinant human semicarbazide sensitive amine oxidase (SSAO/VAP1), diamine oxidase (DAO) and monoamine oxidases A and B (MAO‐A and MAO‐B) assays were performed as previously described.27 For detailed enzymatic procedures, see supporting information.
The measurement of the enzymatic activity of all lysyl oxidase family members was based on the detection of hydrogen peroxide with an Amplex-Red oxidation assay, as described in Zhou et al.[1]; miniaturised in 384 well format, with the appropriate combination of substrate and assay buffer for each individual enzyme. After a 30 minute pre-incubation of the enzyme at 37 °C with the test compound (or with different incubation times for the time-dependency assay), one volume of reaction mixture containing 120 μM Amplex Red (AR) (Life Technologies), 1.5 U/mL horseradish peroxidase (HRP) (Sigma-Aldrich) and the specific substrate was added to each sample. The relative fluorescence units (RFU) were then measured every 2.5 minutes for 30 minutes at 37°C, excitation 565 nm and emission 590, on a BMG Clariostar Microplate Reader. All the substrates were used at concentrations corresponding to their Km towards the corresponding enzyme, or with a range of different concentrations for the substrate competition experiments.
Lysyl oxidases assay buffer contained 1.2 M urea, 50 mM sodium borate buffer, pH 8.2 and 100 µM β-aminoproprionitrile (BAPN, Sigma-Aldrich) was used for low control.
Recombinant human LOXL1 was expressed and purified from cDNA (GeneArt) and 10 mM putrescine was used as substrate. Recombinant human and mouse LOXL2 (R&D Systems) were challenged with 5 mM putrescine (Sigma-Aldrich) as the substrate. Rat and dog recombinant LOXL2 were amplified and purified in house from HEK-293 clones kindly provided by Dr. Fernando Rodríguez Pascual, Madrid University, and used in the same conditions as for the human form. 2 mM putrescine was used as the substrate for recombinant human LOXL3 (R&D Systems) and LOXL4 (Dr. Fernando Rodríguez Pascual, university of Madrid, Spain) assays.

Myocardial infarction = Myocardial infarction (left coronary artery occlusion); type: in vivo, C57/BL6 mice; settings: 25 mg/kg q.d., p.o., 4 weeks; compared to infarcted untreated animals
Protocol: The study was performed by CL Laboratory (Baltimore, USA) with approval from the Institutional Animal Care and Use Committee. Myocardial infarction (MI) was induced in C57/BL6 mice by occluding the left coronary artery. The same surgery but without occluding the left coronary artery was used as a sham control. At 24 hours post‐surgery, animals received echocardiography. Infarcted mice with high cardiac function (FS > 40%) or low cardiac function (FS < 10%) were excluded from the study. The remaining mice were treated q.d., p.o., with 25 mg/kg of PXS‐5153A for 4 weeks. At the end of the experiment, echocardiography was performed on mice to assess left ventricular function and remodelling, followed by heart collection. The heart was fixed with 10% formalin. Fibrosis was assessed in the non‐infarct area. Fibrotic blue area and whole non‐infarct area were measured using computerized planimetry (Image J). The fibrotic area was presented as a percentage of the whole non‐infarct area. Three random fields per heart were counted, averaged and a total of 30‐45 fields per group were measured.

[3] = molecular target: Serotonin (5-Hydroxytryptamine) 5-HT2B (Homo sapiens, UniProt P41595); assay: Eurofins Hit Profiling Screen; type: binding; settings: 10 μmol/L
Serotonin (5-Hydroxytryptamine) 5-HT2B, sequence (P41595 whole entry): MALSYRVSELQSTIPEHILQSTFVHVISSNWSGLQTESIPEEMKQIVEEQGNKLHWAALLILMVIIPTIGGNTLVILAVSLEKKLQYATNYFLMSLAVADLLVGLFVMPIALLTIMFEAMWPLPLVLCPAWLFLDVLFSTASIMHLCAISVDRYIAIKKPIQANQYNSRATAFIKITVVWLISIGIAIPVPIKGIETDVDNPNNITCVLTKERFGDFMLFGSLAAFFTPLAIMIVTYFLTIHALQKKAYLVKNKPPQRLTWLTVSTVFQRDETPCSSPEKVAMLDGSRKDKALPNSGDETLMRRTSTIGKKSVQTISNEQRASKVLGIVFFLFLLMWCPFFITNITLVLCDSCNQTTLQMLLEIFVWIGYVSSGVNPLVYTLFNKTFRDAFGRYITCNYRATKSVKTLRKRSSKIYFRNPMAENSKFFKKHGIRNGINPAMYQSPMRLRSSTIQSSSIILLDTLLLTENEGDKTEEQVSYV

Phorbol Ester = assay: Eurofins Hit Profiling Screen; type: binding; settings: 10 μmol/L
[4] = 30 minute pre-incubation at 37 °C, average of at least three experiments

Opiate μ (OP3, MOP), sequence (P35372 whole entry): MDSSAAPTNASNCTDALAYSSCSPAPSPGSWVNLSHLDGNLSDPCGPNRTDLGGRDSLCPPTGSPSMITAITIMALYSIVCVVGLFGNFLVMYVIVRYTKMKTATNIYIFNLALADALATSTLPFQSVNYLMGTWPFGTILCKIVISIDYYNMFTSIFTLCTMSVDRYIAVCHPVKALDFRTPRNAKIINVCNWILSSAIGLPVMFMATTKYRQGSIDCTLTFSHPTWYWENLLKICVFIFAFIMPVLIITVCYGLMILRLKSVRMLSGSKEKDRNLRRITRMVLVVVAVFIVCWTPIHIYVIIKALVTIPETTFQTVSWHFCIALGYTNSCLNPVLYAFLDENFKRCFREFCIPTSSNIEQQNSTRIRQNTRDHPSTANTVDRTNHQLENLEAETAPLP
Nicotinic Acetylcholine α1, Bungarotoxin, sequence (Q07001 22-517): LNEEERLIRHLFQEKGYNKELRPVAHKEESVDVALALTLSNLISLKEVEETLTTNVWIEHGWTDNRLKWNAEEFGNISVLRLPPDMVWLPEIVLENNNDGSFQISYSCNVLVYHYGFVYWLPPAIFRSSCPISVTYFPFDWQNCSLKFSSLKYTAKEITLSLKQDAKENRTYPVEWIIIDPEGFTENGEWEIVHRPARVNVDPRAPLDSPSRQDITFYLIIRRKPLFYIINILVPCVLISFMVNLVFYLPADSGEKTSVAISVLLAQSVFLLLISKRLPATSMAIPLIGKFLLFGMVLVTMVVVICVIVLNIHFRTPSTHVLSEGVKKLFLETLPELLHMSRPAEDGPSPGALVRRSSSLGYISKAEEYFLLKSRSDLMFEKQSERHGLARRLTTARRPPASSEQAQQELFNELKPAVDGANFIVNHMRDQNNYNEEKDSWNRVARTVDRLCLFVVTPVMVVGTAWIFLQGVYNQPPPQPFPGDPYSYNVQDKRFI
Nicotinic Acetylcholine α1, Bungarotoxin, sequence (P02708 21-457): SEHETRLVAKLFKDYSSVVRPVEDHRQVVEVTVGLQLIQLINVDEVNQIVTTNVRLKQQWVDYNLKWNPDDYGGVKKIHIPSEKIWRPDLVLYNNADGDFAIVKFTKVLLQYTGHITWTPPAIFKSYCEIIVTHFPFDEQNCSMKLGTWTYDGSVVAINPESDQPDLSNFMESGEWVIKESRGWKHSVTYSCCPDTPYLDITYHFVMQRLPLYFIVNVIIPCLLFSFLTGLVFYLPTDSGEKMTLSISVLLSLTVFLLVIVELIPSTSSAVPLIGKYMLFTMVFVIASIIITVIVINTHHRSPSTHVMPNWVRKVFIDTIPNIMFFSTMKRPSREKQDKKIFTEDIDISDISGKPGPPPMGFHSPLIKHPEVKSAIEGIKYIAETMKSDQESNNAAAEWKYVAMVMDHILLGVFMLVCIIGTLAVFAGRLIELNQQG
Nicotinic Acetylcholine α1, Bungarotoxin, sequence (P07510 23-517): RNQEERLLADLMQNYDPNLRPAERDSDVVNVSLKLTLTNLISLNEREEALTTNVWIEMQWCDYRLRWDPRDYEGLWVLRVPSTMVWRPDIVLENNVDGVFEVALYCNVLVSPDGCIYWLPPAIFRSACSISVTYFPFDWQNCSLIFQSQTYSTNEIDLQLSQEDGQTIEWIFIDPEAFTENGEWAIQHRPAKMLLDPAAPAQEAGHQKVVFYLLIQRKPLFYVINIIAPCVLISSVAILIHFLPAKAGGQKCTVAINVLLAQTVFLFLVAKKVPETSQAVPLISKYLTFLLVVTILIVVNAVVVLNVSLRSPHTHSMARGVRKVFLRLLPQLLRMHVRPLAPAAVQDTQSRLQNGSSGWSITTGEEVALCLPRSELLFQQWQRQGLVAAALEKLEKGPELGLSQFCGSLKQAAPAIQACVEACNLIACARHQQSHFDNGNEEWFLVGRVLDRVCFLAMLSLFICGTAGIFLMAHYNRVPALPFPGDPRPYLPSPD
Nicotinic Acetylcholine α1, Bungarotoxin, sequence (P11230 24-501, further chain): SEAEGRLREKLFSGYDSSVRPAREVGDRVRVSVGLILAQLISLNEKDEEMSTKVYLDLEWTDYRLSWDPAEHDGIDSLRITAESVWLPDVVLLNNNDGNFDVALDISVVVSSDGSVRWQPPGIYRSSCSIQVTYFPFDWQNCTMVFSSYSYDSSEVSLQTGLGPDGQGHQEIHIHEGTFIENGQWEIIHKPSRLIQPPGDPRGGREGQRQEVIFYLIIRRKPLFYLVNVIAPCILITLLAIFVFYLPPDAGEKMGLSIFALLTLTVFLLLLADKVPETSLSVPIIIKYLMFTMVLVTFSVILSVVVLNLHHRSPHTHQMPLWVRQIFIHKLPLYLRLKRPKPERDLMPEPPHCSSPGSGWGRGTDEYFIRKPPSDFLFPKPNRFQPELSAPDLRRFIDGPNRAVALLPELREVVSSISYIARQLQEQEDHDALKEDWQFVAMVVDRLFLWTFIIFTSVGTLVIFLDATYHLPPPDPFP

Cc1c(-c2cccc(S(=O)(=O)N(C)C)c2)c2ncccc2n1C/C(F)=C/CN.Cl.Cl [PXS-5153A]
% inhibition (Imidazoline I2, Central): 57% | % inhibition (Opiate μ (OP3, MOP)): 11% | % inhibition [1]: 2% | Apparent half-life, t1/2 ([2]; intravenous 5 mg/kg): 1.6 h | Clearance CL ([2]; intravenous 5 mg/kg): 673 mL/min/kg | Time of maximal concentration Tmax ([2]; intravenous 5 mg/kg): 0.08 h | Apparent concentration at curve maximum Cmax ([2]; oral 5 mg/kg): 113 ng/mL | Clearance CL ([2]; oral 5 mg/kg): 593 mL/min/kg | Time of maximal concentration Tmax ([2]; oral 5 mg/kg): 1 h | Bioavailability ([2]; oral 5 mg/kg (i.v. 5 mg/kg)): 40% | % inhibition (Adrenergic β1): 3% | IC50 (LOXL2; [4]): 0.021 µM | pIC50 ± SD (LOXL2; [4]): 7.7 ± 0.23 | selectivity for LOXL2 over LOX (LOXL2; LOXL2 over LOX): > 40 fold | selectivity for LOXL2 over LOXL1 (LOXL2; LOXL2 over LOXL1): > 40 fold | selectivity over other related amine oxidases (LOXL2; LOXL2 over other related amine oxidases): > 700 fold | rate of inactivation (kinact) (LOXL2; mechanism-based irreversible inhibition, enzyme not given): 0.20 min⁻¹ | Ki (LOXL2; mechanism-based irreversible inhibition, enzyme not given, read-out: apparent binding constant (Ki)): 1.01 µM | ejection fraction (Myocardial infarction): improvement | fractional shortening (Myocardial infarction): improvement | percentage fibrotic coverage area (Myocardial infarction): decrease | % inhibition [3]: 33% | % inhibition (Phorbol Ester): 2%

— PMC6378217, “The lysyl oxidase like 2/3 enzymatic inhibitor, PXS‐5153A, reduces crosslinks and ameliorates fibrosis” (Journal of Cellular and Molecular Medicine, 2018)
